The source of these data is ChEMBL document CHEMBL1139370, “Discovery of 1-[9-(4-chlorophenyl)-8-(2-chlorophenyl)-9H-purin-6-yl]-4-ethylaminopiperidine-4-carboxylic acid amide hydrochloride (CP-945,598), a novel, potent, and selective cannabinoid type 1 receptor antagonist” (J Med Chem, 2009).

Active and inactive are the calls of the source. The calls are words filed in the database; no cut-off is given here.

Chain of Cannabinoid receptor 1 (Rattus norvegicus, UniProt P20272) (P20272 whole entry): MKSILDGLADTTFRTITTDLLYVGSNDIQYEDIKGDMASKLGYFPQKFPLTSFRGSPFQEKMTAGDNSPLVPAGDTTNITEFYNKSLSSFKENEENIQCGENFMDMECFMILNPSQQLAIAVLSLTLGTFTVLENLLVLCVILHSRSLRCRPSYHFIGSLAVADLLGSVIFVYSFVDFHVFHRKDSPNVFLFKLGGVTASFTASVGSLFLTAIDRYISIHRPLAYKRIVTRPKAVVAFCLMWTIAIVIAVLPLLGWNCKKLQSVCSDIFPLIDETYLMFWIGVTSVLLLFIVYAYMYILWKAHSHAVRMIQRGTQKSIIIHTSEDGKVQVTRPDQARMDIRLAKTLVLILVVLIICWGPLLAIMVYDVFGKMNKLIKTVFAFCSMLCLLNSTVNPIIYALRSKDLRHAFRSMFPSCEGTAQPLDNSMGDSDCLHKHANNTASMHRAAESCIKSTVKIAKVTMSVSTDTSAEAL
Chain of Voltage-gated inwardly rectifying potassium channel KCNH2 (Q12809 whole entry): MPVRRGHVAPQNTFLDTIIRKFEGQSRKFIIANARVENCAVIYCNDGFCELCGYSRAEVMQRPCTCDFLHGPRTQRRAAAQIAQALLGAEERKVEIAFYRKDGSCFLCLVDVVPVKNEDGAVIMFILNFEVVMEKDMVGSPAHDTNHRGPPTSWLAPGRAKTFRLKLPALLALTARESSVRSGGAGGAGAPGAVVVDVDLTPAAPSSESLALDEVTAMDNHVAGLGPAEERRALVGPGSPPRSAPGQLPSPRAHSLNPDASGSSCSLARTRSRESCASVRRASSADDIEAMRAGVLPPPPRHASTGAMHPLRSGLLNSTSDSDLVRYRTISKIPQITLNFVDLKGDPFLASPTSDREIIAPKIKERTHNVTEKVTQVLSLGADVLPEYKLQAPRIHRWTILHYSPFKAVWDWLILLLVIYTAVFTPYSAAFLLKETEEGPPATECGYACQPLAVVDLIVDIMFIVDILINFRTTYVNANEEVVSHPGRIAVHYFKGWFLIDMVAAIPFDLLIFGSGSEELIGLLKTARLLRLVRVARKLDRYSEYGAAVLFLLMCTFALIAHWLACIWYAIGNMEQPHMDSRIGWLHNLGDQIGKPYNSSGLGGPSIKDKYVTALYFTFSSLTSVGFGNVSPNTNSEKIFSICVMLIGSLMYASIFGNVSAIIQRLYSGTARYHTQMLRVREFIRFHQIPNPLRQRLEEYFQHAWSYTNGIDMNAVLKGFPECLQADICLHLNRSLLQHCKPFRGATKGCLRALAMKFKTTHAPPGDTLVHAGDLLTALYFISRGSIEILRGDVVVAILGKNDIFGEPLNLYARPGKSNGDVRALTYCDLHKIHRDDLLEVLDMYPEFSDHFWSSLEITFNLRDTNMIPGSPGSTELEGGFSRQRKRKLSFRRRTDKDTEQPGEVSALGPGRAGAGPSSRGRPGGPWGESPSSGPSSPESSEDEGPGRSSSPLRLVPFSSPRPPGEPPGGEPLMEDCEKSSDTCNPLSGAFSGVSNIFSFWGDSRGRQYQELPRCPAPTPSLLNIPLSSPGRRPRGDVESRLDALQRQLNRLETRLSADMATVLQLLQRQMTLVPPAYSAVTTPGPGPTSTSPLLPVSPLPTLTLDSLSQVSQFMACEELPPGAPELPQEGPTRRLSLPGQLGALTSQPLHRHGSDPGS
T1 sequence (P21554 whole entry): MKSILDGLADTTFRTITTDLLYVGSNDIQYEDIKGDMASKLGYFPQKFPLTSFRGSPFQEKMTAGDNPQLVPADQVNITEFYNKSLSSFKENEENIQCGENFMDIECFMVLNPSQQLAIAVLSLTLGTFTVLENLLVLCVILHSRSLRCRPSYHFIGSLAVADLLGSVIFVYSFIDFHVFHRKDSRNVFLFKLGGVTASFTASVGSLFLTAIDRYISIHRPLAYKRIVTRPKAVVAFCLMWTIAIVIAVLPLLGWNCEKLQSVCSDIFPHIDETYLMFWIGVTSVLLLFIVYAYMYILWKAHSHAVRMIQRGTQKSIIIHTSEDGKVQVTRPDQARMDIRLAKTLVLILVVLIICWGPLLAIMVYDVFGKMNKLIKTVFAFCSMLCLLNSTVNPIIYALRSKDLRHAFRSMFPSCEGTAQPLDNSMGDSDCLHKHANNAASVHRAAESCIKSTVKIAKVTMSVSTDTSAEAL

One data set addresses Voltage-gated inwardly rectifying potassium channel KCNH2 (Homo sapiens, UniProt Q12809). Briefly: Inhibition of human ERG.
Details: not given
Usually IC50 stands for the concentration needed to halve the response being measured. The compound `CN1CCN(c2ncnc3c2nc(-c2ccccc2Cl)n3-c2ccc(Cl)cc2)CC1` registered a 50% inhibitory concentration (IC50) of 630 nM.
`Clc1ccc(-n2c(-c3ccc(Cl)cc3Cl)nc3c(NN4CCCCC4)ncnc32)cc1` registered an IC50 of 2700 nM.
Compound `CCNC1(C(N)=O)CCN(c2ncnc3c2nc(-c2ccccc2Cl)n3-c2ccc(Cl)cc2)CC1` [OTENABANT] returned an IC50 of over 3000 nM.
Still for that read-out and setting: the value for `CN1CCN(c2ncnc3c2nc(-c2ccc(Cl)cc2Cl)n3-c2ccc(Cl)cc2)CC1` was 350 nM.
On the same count and under the same terms, the value for `Clc1ccc(-n2c(-c3ccc(Cl)cc3Cl)nc3c(N4CCCCC4)ncnc32)cc1` was over 3000 nM.

Test system in the next data set: not listed separately
Briefly: Induction of P-gp-mediated efflux in mdr1a/1b knockout mouse model.
Details: not given
With `CCNC1(C(N)=O)CCN(c2ncnc3c2nc(-c2ccccc2Cl)n3-c2ccc(Cl)cc2)CC1` [OTENABANT], the result was Active.

A further data set concerns the target T1, Cannabinoid receptor 1 (Homo sapiens, UniProt P21554). Briefly: biochemical. It counts as cell-based, HEK293.
Details: not given
By Ki is commonly meant the equilibrium dissociation constant of an inhibitor or competing ligand from its target. `Clc1ccc(-n2c(-c3ccc(Cl)cc3Cl)nc3c(NN4CCCCC4)ncnc32)cc1` gave a Ki of 7.4 nM.
On the same count and under the same terms, with `Clc1ccc(-n2c(-c3ccc(Cl)cc3Cl)nc3c(NC4CCCCC4)ncnc32)cc1` the figure was 7.1 nM; with `CN1CCN(c2ncnc3c2nc(-c2ccc(Cl)cc2Cl)n3-c2ccc(Cl)cc2)CC1`, 5.2 nM.
Same read-out and setting: the value for `Clc1ccc(-n2c(-c3ccc(Cl)cc3Cl)nc3c(N4CCCCC4)ncnc32)cc1` was 6.1 nM.
Compound `Clc1ccc(-n2c(-c3ccccc3Cl)nc3c(N4CCCCC4)ncnc32)cc1` showed a Ki of 2.3 nM.

In another data set the test system is Mus musculus. Briefly: Reversal of CP-55940-induced analgesia in ICR mouse at 10 mg/kg, sc pretreated 15 mins before CP-55940 challenge measured 45 mins post challenge by hot plate method. It counts as functional. To be noted: route subcutaneous. For orientation: In hot-plate and tail-flick tests a longer latency is read as antinociception.
As for `CCNC1(C(N)=O)CCN(c2ncnc3c2nc(-c2ccccc2Cl)n3-c2ccc(Cl)cc2)CC1` [OTENABANT], the Activity was found to be 85%.
Same read-out and setting: the value for `CN1CCN(c2ncnc3c2nc(-c2ccc(Cl)cc2Cl)n3-c2ccc(Cl)cc2)CC1` was 74%.
On the same count and under the same terms, the value for `Clc1ccc(-n2c(-c3ccc(Cl)cc3Cl)nc3c(N4CCCCC4)ncnc32)cc1` was 72%.

The next data set concerns the target T1, Cannabinoid receptor 1. Briefly: Antagonist activity against human CB1 receptor expressed in CHO-K1 cells by [35S]GTPgamma binding assay. It counts as functional, cell-based.
Details: not given
`Clc1ccc(-n2c(-c3ccc(Cl)cc3Cl)nc3c(NN4CCCCC4)ncnc32)cc1`: the Ki worked out at 1.7 nM.
Still for that read-out and setting: with `Clc1ccc(-n2c(-c3ccc(Cl)cc3Cl)nc3c(NC4CCCCC4)ncnc32)cc1` the figure was 1.5 nM.
Still for that read-out and setting: the value for `CN1CCN(c2ncnc3c2nc(-c2ccc(Cl)cc2Cl)n3-c2ccc(Cl)cc2)CC1` was 1.5 nM; that for `Clc1ccc(-n2c(-c3ccc(Cl)cc3Cl)nc3c(N4CCCCC4)ncnc32)cc1` was 1.7 nM; that for `Clc1ccc(-n2c(-c3ccccc3Cl)nc3c(N4CCCCC4)ncnc32)cc1` was 1.1 nM.

Test system in the next data set: not listed separately
Briefly: Metabolic stability in human liver microsomes assessed as intrinsic clearance.
Details: not given
It counts as ADME, Microsome.
Usually CLint scaled stands for the capacity of the preparation to metabolise the compound, expressed as a volume cleared per time. As to `CN1CCN(c2ncnc3c2nc(-c2ccccc2Cl)n3-c2ccc(Cl)cc2)CC1`, the CLint scaled is 18 L/h/kg.
On the same count and under the same terms, the value for `Clc1ccc(-n2c(-c3ccc(Cl)cc3Cl)nc3c(NN4CCCCC4)ncnc32)cc1` was 102 L/h/kg.
Same read-out and setting: with `CCNC1(C(N)=O)CCN(c2ncnc3c2nc(-c2ccccc2Cl)n3-c2ccc(Cl)cc2)CC1` [OTENABANT] the figure was 44.4 L/h/kg; with `Clc1ccc(-n2c(-c3ccc(Cl)cc3Cl)nc3c(NC4CCCCC4)ncnc32)cc1`, 1680 L/h/kg; with `CN1CCN(c2ncnc3c2nc(-c2ccc(Cl)cc2Cl)n3-c2ccc(Cl)cc2)CC1`, 44.4 L/h/kg.
On the same count and under the same terms, with `Clc1ccc(-n2c(-c3ccc(Cl)cc3Cl)nc3c(N4CCCCC4)ncnc32)cc1` the figure was 1680 L/h/kg.
Regarding `Clc1ccc(-n2c(-c3ccccc3Cl)nc3c(N4CCCCC4)ncnc32)cc1`, the CLint scaled turned out to be 186 L/h/kg.

The next data set relates to Mus musculus. Briefly: Reversal of CP-55940-induced locomotor activity in ICR mouse at 10 mg/kg, sc pretreated 15 mins before CP-55940 challenge measured 25 mins post challenge.
Details: not given
Set-up: dose 10 mg/kg. It counts as functional, organism-based.
For the compound `CCNC1(C(N)=O)CCN(c2ncnc3c2nc(-c2ccccc2Cl)n3-c2ccc(Cl)cc2)CC1` [OTENABANT], the outcome was Active.

Test system in the next data set: not listed separately
Briefly: Metabolic stability in rat liver microsomes assessed as intrinsic clearance. It counts as ADME, Microsome.
Details: not given
Background: Liver microsomes are a subcellular fraction often used to study metabolism.
With `CN1CCN(c2ncnc3c2nc(-c2ccccc2Cl)n3-c2ccc(Cl)cc2)CC1`, the CLint scaled amounted to 90 L/h/kg.
Same read-out and setting: the value for `Clc1ccc(-n2c(-c3ccc(Cl)cc3Cl)nc3c(NN4CCCCC4)ncnc32)cc1` was 246 L/h/kg; that for `CCNC1(C(N)=O)CCN(c2ncnc3c2nc(-c2ccccc2Cl)n3-c2ccc(Cl)cc2)CC1` [OTENABANT] was 72 L/h/kg; that for `Clc1ccc(-n2c(-c3ccc(Cl)cc3Cl)nc3c(NC4CCCCC4)ncnc32)cc1` was 1440 L/h/kg.
On the same count and under the same terms, with `Cc1c(C(=O)NN2CCCCC2)nn(-c2ccc(Cl)cc2Cl)c1-c1ccc(Cl)cc1` [RIMONABANT] the figure was 540 L/h/kg; with `CN1CCN(c2ncnc3c2nc(-c2ccc(Cl)cc2Cl)n3-c2ccc(Cl)cc2)CC1`, 354 L/h/kg; with `Clc1ccc(-n2c(-c3ccc(Cl)cc3Cl)nc3c(N4CCCCC4)ncnc32)cc1`, 4620 L/h/kg.
Take `Clc1ccc(-n2c(-c3ccccc3Cl)nc3c(N4CCCCC4)ncnc32)cc1`: the CLint scaled came to 516 L/h/kg.

A further data set relates to Mus musculus. Briefly: Reversal of CP-55940-induced catalepsy in ICR mouse at 10 mg/kg, sc pretreated 15 mins before CP-55940 challenge measured 90 mins post challenge. It counts as functional, organism-based.
Details: not given
Set-up: dose 10 mg/kg.
On to `CCNC1(C(N)=O)CCN(c2ncnc3c2nc(-c2ccccc2Cl)n3-c2ccc(Cl)cc2)CC1` [OTENABANT], for which the result was Active.

Test system in a further data set: not listed separately
Briefly: Inhibition of P-gp assessed as ATP turnover at […] by cell-based ATPase assay.
Details: not given
On to `CCNC1(C(N)=O)CCN(c2ncnc3c2nc(-c2ccccc2Cl)n3-c2ccc(Cl)cc2)CC1` [OTENABANT], for which the result was inactive.

Another data set concerns the target Cannabinoid receptor 1 (Rattus norvegicus, UniProt P20272). Briefly: Displacement of [3H]SR141716A from CB1 receptor in rat brain. It counts as tissue-based.
Details: not given
For orientation: Loss of bound radioactivity is the signal in a displacement assay; it reports binding, not function.
`CN1CCN(c2ncnc3c2nc(-c2ccccc2Cl)n3-c2ccc(Cl)cc2)CC1` had a Ki of 24 nM.
Same read-out and setting: the value for `Clc1ccc(-n2c(-c3ccc(Cl)cc3Cl)nc3c(NN4CCCCC4)ncnc32)cc1` was 3.6 nM; that for `CCNC1(C(N)=O)CCN(c2ncnc3c2nc(-c2ccccc2Cl)n3-c2ccc(Cl)cc2)CC1` [OTENABANT] was 2.8 nM; that for `Clc1ccc(-n2c(-c3ccc(Cl)cc3Cl)nc3c(NC4CCCCC4)ncnc32)cc1` was 12 nM.
Same read-out and setting: the value for `CN1CCN(c2ncnc3c2nc(-c2ccc(Cl)cc2Cl)n3-c2ccc(Cl)cc2)CC1` was 5.9 nM.
Turning to `Clc1ccc(-n2c(-c3ccc(Cl)cc3Cl)nc3c(N4CCCCC4)ncnc32)cc1`, the affinity, expressed as Ki, was 4.2 nM.
On the same count and under the same terms, with `Clc1ccc(-n2c(-c3ccccc3Cl)nc3c(N4CCCCC4)ncnc32)cc1` the figure was 2.1 nM.

Test system in another data set: not listed separately
Briefly: Thermodynamic solubility in USP simulated gastric fluid at pH 1.2 by reversed phase HPLC. The settings on record: simulated gi fluid. It counts as physicochemical.
For `CN1CCN(c2ncnc3c2nc(-c2ccccc2Cl)n3-c2ccc(Cl)cc2)CC1`, the Thermodynamic solubility is given as 1290 ugA/ml.
Same read-out and setting: the value for `Clc1ccc(-n2c(-c3ccc(Cl)cc3Cl)nc3c(NN4CCCCC4)ncnc32)cc1` was 161 ugA/ml; that for `CCNC1(C(N)=O)CCN(c2ncnc3c2nc(-c2ccccc2Cl)n3-c2ccc(Cl)cc2)CC1` [OTENABANT] was 291 ugA/ml.
On the same count and under the same terms, with `Clc1ccc(-n2c(-c3ccc(Cl)cc3Cl)nc3c(NC4CCCCC4)ncnc32)cc1` the figure was 4.1 ugA/ml.
`CN1CCN(c2ncnc3c2nc(-c2ccc(Cl)cc2Cl)n3-c2ccc(Cl)cc2)CC1`: the Thermodynamic solubility is given as 4930 ugA/ml.
The compound `Clc1ccc(-n2c(-c3ccc(Cl)cc3Cl)nc3c(N4CCCCC4)ncnc32)cc1` came in with a Thermodynamic solubility of 3.5 ugA/ml.
Still for that read-out and setting: the value for `Clc1ccc(-n2c(-c3ccccc3Cl)nc3c(N4CCCCC4)ncnc32)cc1` was 8.8 ugA/ml.

Test system in a further data set: not listed separately
Briefly: Lipophilicity, log D of the compound. The settings on record: octanol/water. It counts as physicochemical.
In general, logD refers to the decadic logarithm of the distribution of all forms, ionised or not, between an organic phase and buffer at a given pH. Consider `CN1CCN(c2ncnc3c2nc(-c2ccccc2Cl)n3-c2ccc(Cl)cc2)CC1`, for which the logD stood at 4.1.
In turn, `Clc1ccc(-n2c(-c3ccc(Cl)cc3Cl)nc3c(NN4CCCCC4)ncnc32)cc1` yielded a logD of 5.3.
`CCNC1(C(N)=O)CCN(c2ncnc3c2nc(-c2ccccc2Cl)n3-c2ccc(Cl)cc2)CC1` [OTENABANT] returned a logD of 4.
Same read-out and setting: with `Clc1ccc(-n2c(-c3ccc(Cl)cc3Cl)nc3c(NC4CCCCC4)ncnc32)cc1` the figure was 6.3.
The same measure, in the same setting: the value for `CN1CCN(c2ncnc3c2nc(-c2ccc(Cl)cc2Cl)n3-c2ccc(Cl)cc2)CC1` was 4.8; that for `Clc1ccc(-n2c(-c3ccc(Cl)cc3Cl)nc3c(N4CCCCC4)ncnc32)cc1` was 5.9; that for `Clc1ccc(-n2c(-c3ccccc3Cl)nc3c(N4CCCCC4)ncnc32)cc1` was 5.4.

The test system of another data set is Mus musculus. Briefly: Reversal of CP-55940-induced hypothermia in ICR mouse at 10 mg/kg, sc pretreated 15 mins before CP-55940 challenge measured 65 mins post challenge. To be noted: route subcutaneous. It counts as functional.
`CCNC1(C(N)=O)CCN(c2ncnc3c2nc(-c2ccccc2Cl)n3-c2ccc(Cl)cc2)CC1` [OTENABANT]: the Activity was 73%.
Still for that read-out and setting: the value for `CN1CCN(c2ncnc3c2nc(-c2ccc(Cl)cc2Cl)n3-c2ccc(Cl)cc2)CC1` was 4%.
Same read-out and setting: the value for `Clc1ccc(-n2c(-c3ccc(Cl)cc3Cl)nc3c(N4CCCCC4)ncnc32)cc1` was 29%.

Test system in the next data set: not listed separately
Briefly: Inhibition of P-gp by cell-based calcein-acetoxymethyl ester assay.
Details: not given
On to `CCNC1(C(N)=O)CCN(c2ncnc3c2nc(-c2ccccc2Cl)n3-c2ccc(Cl)cc2)CC1` [OTENABANT], for which the IC50 was 15000 nM.

The test system of a further data set is Rattus norvegicus. Briefly: Anorectic activity in Sprague-Dawley rat assessed as reduction in food intake at 10 mg/kg, po measured at 10 mins interval for 2 hrs by fast-induced refeeding assay relative to control. It counts as functional. Set-up: scale not given: the % may be the effect or the level left.
Details: not given
Consider `CCNC1(C(N)=O)CCN(c2ncnc3c2nc(-c2ccccc2Cl)n3-c2ccc(Cl)cc2)CC1` [OTENABANT], for which the Activity came out at 54%.
The same measure, in the same setting: with `CN1CCN(c2ncnc3c2nc(-c2ccc(Cl)cc2Cl)n3-c2ccc(Cl)cc2)CC1` the figure was 25%.
For the compound `Clc1ccc(-n2c(-c3ccc(Cl)cc3Cl)nc3c(N4CCCCC4)ncnc32)cc1`, the Activity was 6%.

Test system in the next data set: not listed separately
Briefly: Thermodynamic solubility in 0.1 M phosphate buffered saline at pH 6.5 by reversed phase HPLC. It counts as physicochemical. To be noted: buffer.
As for `CN1CCN(c2ncnc3c2nc(-c2ccccc2Cl)n3-c2ccc(Cl)cc2)CC1`, the Thermodynamic solubility worked out at 0.33 ugA/ml.
On the same count and under the same terms, with `Clc1ccc(-n2c(-c3ccc(Cl)cc3Cl)nc3c(NN4CCCCC4)ncnc32)cc1` the figure was 1.4 ugA/ml; with `CCNC1(C(N)=O)CCN(c2ncnc3c2nc(-c2ccccc2Cl)n3-c2ccc(Cl)cc2)CC1` [OTENABANT], 1.3 ugA/ml.
`Clc1ccc(-n2c(-c3ccc(Cl)cc3Cl)nc3c(NC4CCCCC4)ncnc32)cc1` came in with a Thermodynamic solubility of under 0.1 ugA/ml.
In the case of `CN1CCN(c2ncnc3c2nc(-c2ccc(Cl)cc2Cl)n3-c2ccc(Cl)cc2)CC1`, the Thermodynamic solubility was 0.7 ugA/ml.
The same measure, in the same setting: with `Clc1ccc(-n2c(-c3ccc(Cl)cc3Cl)nc3c(N4CCCCC4)ncnc32)cc1` the figure was under 0.1 ugA/ml; with `Clc1ccc(-n2c(-c3ccccc3Cl)nc3c(N4CCCCC4)ncnc32)cc1`, under 0.1 µgA/ml.
